Assay results reported in the supplement of paper PMC10307832.

Columns and labels:
Assay in all cases: relative viability (nuclei count vs DMSO), 5 days (fraction); higher = more cells survive
NCI-H358 = system: NCI-H358
Outline: (§1)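 Lung cancer cell lines were pin-tool dosed in 1536-well plates on the day after seeding, with either a lone drug or a fixed anchor-drug dose plus five library-drug doses (not always all listed) in √10 steps. Nuclei were counted on 4× images after 5 days. Relative viability is the ratio of treated-well to vehicle-well nuclei counts, with each value a median of duplicate plates.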

NCI-H596 = system: NCI-H596
Outline: as §1

EKVX = system: EKVX
Outline: as §1

NCI-H1975 = system: NCI-H1975
Outline: as §1

NCI-H441 = system: NCI-H441
Outline: as §1

NCI-H1437 = system: NCI-H1437
Outline: as §1

NCI-H650 = system: NCI-H650
Outline: as §1

NCI-H23 = system: NCI-H23
Outline: as §1

201T = system: 201T
Outline: as §1

NCI-H1792 = system: NCI-H1792
Outline: as §1

SK-MES-1 = system: SK-MES-1
Outline: as §1

HCC-827 = system: HCC-827
Outline: as §1

HCC-44 = system: HCC-44
Outline: as §1

NCI-H838 = system: NCI-H838
Outline: as §1

HARA = system: HARA
Outline: as §1

BEN = system: BEN
Outline: as §1

COR-L23 = system: COR-L23
Outline: as §1

HCC-15 = system: HCC-15
Outline: as §1

A-427 = system: A-427
Outline: as §1

COc1cc2nccc(Oc3ccc(NC(=O)Nc4cc(C)on4)c(Cl)c3)c2cc1OC [Tivozanib] + Cc1nc(NC(=O)N2CCC[C@H]2C(N)=O)sc1-c1ccnc(C(C)(C)C(F)(F)F)c1 [Alpelisib] (partner 2 µM)
relative viability (NCI-H358; first compound 0.005 µM): 0.736
relative viability (NCI-H358; first compound 0.01581 µM): 0.803
relative viability (NCI-H358; first compound 0.05 µM): 0.771
relative viability (NCI-H358; first compound 0.1581 µM): 0.73
relative viability (NCI-H358; first compound 0.5 µM): 0.94
relative viability (NCI-H596; first compound 0.005 µM): 0.462
relative viability (NCI-H596; first compound 0.01581 µM): 0.464
relative viability (NCI-H596; first compound 0.05 µM): 0.544
relative viability (NCI-H596; first compound 0.1581 µM): 0.47
relative viability (NCI-H596; first compound 0.5 µM): 0.595
relative viability (EKVX; first compound 0.005 µM): 0.903
relative viability (EKVX; first compound 0.01581 µM): 0.93
relative viability (EKVX; first compound 0.05 µM): 0.958
relative viability (EKVX; first compound 0.1581 µM): 0.888
relative viability (EKVX; first compound 0.5 µM): 0.872
relative viability (NCI-H1975; first compound 0.005 µM): 0.587
relative viability (NCI-H1975; first compound 0.01581 µM): 0.652
relative viability (NCI-H1975; first compound 0.05 µM): 0.672
relative viability (NCI-H1975; first compound 0.1581 µM): 0.62
relative viability (NCI-H1975; first compound 0.5 µM): 0.643
relative viability (NCI-H441; first compound 0.005 µM): 0.711
relative viability (NCI-H441; first compound 0.01581 µM): 0.452
relative viability (NCI-H441; first compound 0.05 µM): 0.57
relative viability (NCI-H441; first compound 0.1581 µM): 0.632
relative viability (NCI-H441; first compound 0.5 µM): 0.56
relative viability (NCI-H1437; first compound 0.005 µM): 1.02
relative viability (NCI-H1437; first compound 0.01581 µM): 1
relative viability (NCI-H1437; first compound 0.05 µM): 1
relative viability (NCI-H1437; first compound 0.1581 µM): 0.943
relative viability (NCI-H1437; first compound 0.5 µM): 0.959
relative viability (NCI-H650; first compound 0.005 µM): 1.06
relative viability (NCI-H650; first compound 0.01581 µM): 1.13
relative viability (NCI-H650; first compound 0.05 µM): 1.1
relative viability (NCI-H650; first compound 0.1581 µM): 1.02
relative viability (NCI-H650; first compound 0.5 µM): 0.967
relative viability (NCI-H23; first compound 0.005 µM): 0.735
relative viability (NCI-H23; first compound 0.01581 µM): 0.651
relative viability (NCI-H23; first compound 0.05 µM): 0.615
relative viability (NCI-H23; first compound 0.1581 µM): 0.497
relative viability (NCI-H23; first compound 0.5 µM): 0.561
relative viability (201T; first compound 0.005 µM): 0.993
relative viability (201T; first compound 0.01581 µM): 1
relative viability (201T; first compound 0.05 µM): 1.05
relative viability (201T; first compound 0.1581 µM): 1.02
relative viability (201T; first compound 0.5 µM): 1.08
relative viability (NCI-H1792; first compound 0.005 µM): 0.728
relative viability (NCI-H1792; first compound 0.01581 µM): 0.778
relative viability (NCI-H1792; first compound 0.05 µM): 0.786
relative viability (NCI-H1792; first compound 0.1581 µM): 0.847
relative viability (NCI-H1792; first compound 0.5 µM): 0.812
relative viability (SK-MES-1; first compound 0.005 µM): 0.763
relative viability (SK-MES-1; first compound 0.01581 µM): 1.08
relative viability (SK-MES-1; first compound 0.05 µM): 0.876
relative viability (SK-MES-1; first compound 0.1581 µM): 0.869
relative viability (SK-MES-1; first compound 0.5 µM): 0.857
relative viability (HCC-827; first compound 0.005 µM): 0.902
relative viability (HCC-827; first compound 0.01581 µM): 0.992
relative viability (HCC-827; first compound 0.05 µM): 1.04
relative viability (HCC-827; first compound 0.1581 µM): 0.98
relative viability (HCC-827; first compound 0.5 µM): 1.02
relative viability (HCC-44; first compound 0.005 µM): 0.815
relative viability (HCC-44; first compound 0.01581 µM): 0.758
relative viability (HCC-44; first compound 0.05 µM): 0.803
relative viability (HCC-44; first compound 0.1581 µM): 0.756
relative viability (HCC-44; first compound 0.5 µM): 0.831
relative viability (NCI-H838; first compound 0.005 µM): 0.984
relative viability (NCI-H838; first compound 0.01581 µM): 1.04
relative viability (NCI-H838; first compound 0.05 µM): 1.04
relative viability (NCI-H838; first compound 0.5 µM): 1.03
relative viability (HARA; first compound 0.005 µM): 0.911
relative viability (HARA; first compound 0.01581 µM): 0.838
relative viability (HARA; first compound 0.05 µM): 0.908
relative viability (HARA; first compound 0.1581 µM): 0.877
relative viability (HARA; first compound 0.5 µM): 0.798
relative viability (BEN; first compound 0.005 µM): 0.991
relative viability (BEN; first compound 0.01581 µM): 1.04
relative viability (BEN; first compound 0.05 µM): 1.03
relative viability (BEN; first compound 0.5 µM): 1.05
relative viability (COR-L23; first compound 0.005 µM): 0.687
relative viability (COR-L23; first compound 0.01581 µM): 0.778
relative viability (COR-L23; first compound 0.05 µM): 0.931
relative viability (COR-L23; first compound 0.1581 µM): 0.709
relative viability (COR-L23; first compound 0.5 µM): 0.582
relative viability (HCC-15; first compound 0.005 µM): 0.917
relative viability (HCC-15; first compound 0.01581 µM): 0.839
relative viability (HCC-15; first compound 0.05 µM): 0.943
relative viability (HCC-15; first compound 0.1581 µM): 0.826
relative viability (HCC-15; first compound 0.5 µM): 0.81
relative viability (A-427; first compound 0.005 µM): 1.05
relative viability (A-427; first compound 0.01581 µM): 1.1
relative viability (A-427; first compound 0.05 µM): 1.12
relative viability (A-427; first compound 0.1581 µM): 0.925
relative viability (A-427; first compound 0.5 µM): 1.06
